Values of other authors, collected in patent publication US20160243144A1 (Oakdene Holdings LLC, priority 2015, published 2016).

Assays:
[1] = given orally
[2] = particularly in patients with HE

**Q.** With `OC[C@H]1O[C@@H](O[C@@H]2[C@@H](CO)OC(O)(CO)[C@H]2O)[C@H](O)[C@@H](O)[C@H]1O` (mixture of isomers) [lactulose] as the molecule, how does the “time by which urinary excretion is essentially complete” value [1] read?
**A.** ≤ 24 h

**Q.** What about the urinary excretion [1] of the same molecule?
**A.** ≤ 3%

**Q.** With `CO[C@H]1/C=C/O[C@@]2(C)Oc3c(C)c(O)c4c(O)c(c5c(nc6cc(C)ccn65)c4c3C2=O)NC(=O)/C(C)=C\C=C\[C@H](C)[C@H](O)[C@@H](C)[C@@H](O)[C@@H](C)[C@H](OC(C)=O)[C@@H]1C` [Rifaximin] as the molecule, how does the “intra-subject variability in Cmax or AUC” value [2] read?
**A.** ≥ 30 % CV
